From the supplement of paper PMC10307832

Assays:
Assay in all cases: relative viability (nuclei count vs DMSO), 5 days (fraction); higher = more cells survive
[1] = test system: LCLC-103H
In short: (§1)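 Relative viability was taken as the ratio of nuclei in treated wells to nuclei in vehicle wells. Lung cancer cell lines in 1536-well plates received compounds by pin tool one day after seeding, either one drug alone or a fixed anchor-drug dose plus five library-drug doses (not always all listed) in √10 steps. Nuclei were counted on 4× images after 5 days of treatment, and values are medians of duplicate plates.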

[2] = test system: NCI-H1793
In short: as §1

[3] = test system: LXF-289
In short: as §1

[4] = test system: NCI-H596
In short: as §1

[5] = test system: NCI-H322M
In short: as §1

[6] = test system: EPLC-272H
In short: as §1

[7] = test system: NCI-H3122
In short: as §1

[8] = test system: NCI-H2023
In short: as §1

[9] = test system: UMC-11
In short: as §1

[10] = test system: BEN
In short: as §1

[11] = test system: NCI-H2126
In short: as §1

[12] = test system: NCI-H358
In short: as §1

[13] = test system: EMC-BAC-2
In short: as §1

[14] = test system: EKVX
In short: as §1

[15] = test system: NCI-H1650
In short: as §1

[16] = test system: NCI-H2087
In short: as §1

[17] = test system: SW 1573
In short: as §1

[18] = test system: A-427
In short: as §1

[19] = test system: SK-LU-1
In short: as §1

[20] = test system: NCI-H1651
In short: as §1

[21] = test system: COR-L23
In short: as §1

[22] = test system: HCC-44
In short: as §1

[23] = test system: 201T
In short: as §1

`Oc1nc(-c2ccc(C(F)(F)F)cc2)nc2c1CSCC2` [XAV939] + O=C(CCCCCCC(=O)Nc1ccccc1)NO [Vorinostat] (partner 1 µM) gave a relative viability ([1]; first compound 0.08 µM) of 0.874, a relative viability ([1]; first compound 0.253 µM) of 0.698 and a relative viability ([1]; first compound 0.8 µM) of 0.805. The relative viability ([1]; first compound 2.53 µM) was 0.618, the relative viability ([2]; first compound 0.08 µM) was 0.952 and the relative viability ([2]; first compound 0.253 µM) was 0.573. The relative viability ([2]; first compound 0.8 µM) was 0.937, the relative viability ([2]; first compound 2.53 µM) was 0.733 and the relative viability ([3]; first compound 0.08 µM) was 0.728. It also gave a relative viability ([3]; first compound 0.253 µM) of 0.68, a relative viability ([3]; first compound 0.8 µM) of 0.804 and a relative viability ([3]; first compound 2.53 µM) of 0.8. For the same compound, the relative viability ([4]; first compound 0.08 µM) was 0.642, the relative viability ([4]; first compound 0.253 µM) was 0.623 and the relative viability ([4]; first compound 0.8 µM) was 0.587. It also gave a relative viability ([4]; first compound 2.53 µM) of 0.543, a relative viability ([5]; first compound 0.08 µM) of 1.1 and a relative viability ([5]; first compound 0.253 µM) of 0.805. For the same compound, the relative viability ([5]; first compound 0.8 µM) was 0.826, the relative viability ([5]; first compound 2.53 µM) was 0.622 and the relative viability ([6]; first compound 0.08 µM) was 0.369. For the same compound, the relative viability ([6]; first compound 0.253 µM) was 0.339, the relative viability ([6]; first compound 0.8 µM) was 0.746 and the relative viability ([6]; first compound 2.53 µM) was 0.324. It also gave a relative viability ([7]; first compound 0.08 µM) of 1.03, a relative viability ([7]; first compound 0.253 µM) of 0.401 and a relative viability ([7]; first compound 0.8 µM) of 0.904. The relative viability ([7]; first compound 2.53 µM) was 0.997, the relative viability ([8]; first compound 0.08 µM) was 0.795 and the relative viability ([8]; first compound 0.253 µM) was 0.552. The relative viability ([8]; first compound 0.8 µM) was 0.574, the relative viability ([8]; first compound 2.53 µM) was 0.461 and the relative viability ([9]; first compound 0.08 µM) was 0.364. For the same compound, the relative viability ([9]; first compound 0.253 µM) was 0.267, the relative viability ([9]; first compound 0.8 µM) was 0.305 and the relative viability ([9]; first compound 2.53 µM) was 0.274. It also gave a relative viability ([10]; first compound 0.08 µM) of 0.556, a relative viability ([10]; first compound 0.253 µM) of 0.587 and a relative viability ([10]; first compound 0.8 µM) of 0.514. The relative viability ([10]; first compound 2.53 µM) was 0.418, the relative viability ([11]; first compound 0.08 µM) was 0.835 and the relative viability ([11]; first compound 0.253 µM) was 0.587. The relative viability ([11]; first compound 0.8 µM) was 0.733, the relative viability ([11]; first compound 2.53 µM) was 0.564 and the relative viability ([12]; first compound 0.08 µM) was 0.796. The relative viability ([12]; first compound 0.253 µM) was 0.49, the relative viability ([12]; first compound 0.8 µM) was 0.658 and the relative viability ([12]; first compound 2.53 µM) was 0.565. The relative viability ([13]; first compound 0.08 µM) was 0.175, the relative viability ([13]; first compound 0.253 µM) was 0.447 and the relative viability ([13]; first compound 0.8 µM) was 0.379. For the same compound, the relative viability ([13]; first compound 2.53 µM) was 0.289, the relative viability ([14]; first compound 0.08 µM) was 0.816 and the relative viability ([14]; first compound 0.8 µM) was 0.678. The relative viability ([14]; first compound 2.53 µM) was 0.423, the relative viability ([15]; first compound 0.08 µM) was 0.909 and the relative viability ([15]; first compound 0.253 µM) was 0.524. It also gave a relative viability ([15]; first compound 0.8 µM) of 0.391, a relative viability ([15]; first compound 2.53 µM) of 0.525 and a relative viability ([16]; first compound 0.08 µM) of 0.978. It also gave a relative viability ([16]; first compound 0.253 µM) of 0.561, a relative viability ([16]; first compound 0.8 µM) of 0.654 and a relative viability ([16]; first compound 2.53 µM) of 0.594. It also gave a relative viability ([17]; first compound 0.08 µM) of 0.922, a relative viability ([17]; first compound 0.253 µM) of 0.8 and a relative viability ([17]; first compound 0.8 µM) of 0.542. The relative viability ([17]; first compound 2.53 µM) was 0.373, the relative viability ([18]; first compound 0.08 µM) was 0.804 and the relative viability ([18]; first compound 0.253 µM) was 0.869. It also gave a relative viability ([18]; first compound 0.8 µM) of 0.895, a relative viability ([18]; first compound 2.53 µM) of 0.745 and a relative viability ([19]; first compound 0.08 µM) of 0.872. The relative viability ([19]; first compound 0.253 µM) was 0.755, the relative viability ([19]; first compound 0.8 µM) was 0.892 and the relative viability ([19]; first compound 2.53 µM) was 0.87. For the same compound, the relative viability ([20]; first compound 0.08 µM) was 0.546, the relative viability ([20]; first compound 0.253 µM) was 0.529 and the relative viability ([20]; first compound 0.8 µM) was 0.555. It also gave a relative viability ([20]; first compound 2.53 µM) of 0.512, a relative viability ([21]; first compound 0.08 µM) of 0.443 and a relative viability ([21]; first compound 0.253 µM) of 0.472. For the same compound, the relative viability ([21]; first compound 0.8 µM) was 0.483, the relative viability ([21]; first compound 2.53 µM) was 0.39 and the relative viability ([22]; first compound 0.08 µM) was 0.981. For the same compound, the relative viability ([22]; first compound 0.253 µM) was 0.919, the relative viability ([22]; first compound 0.8 µM) was 0.947 and the relative viability ([22]; first compound 2.53 µM) was 1.04. It also gave a relative viability ([23]; first compound 0.08 µM) of 1.07, a relative viability ([23]; first compound 0.253 µM) of 0.794 and a relative viability ([23]; first compound 0.8 µM) of 0.832. For the same compound, the relative viability ([23]; first compound 2.53 µM) was 0.779.
